{"source": "patent US12077503B2", "about": "“Substituted cyclic amides and their use as herbicides” (FMC CORPORATION, priority 2015, dated 2024)", "format_in_all_cases": "in vivo", "key": {"[1]": {"test_system": "barnyardgrass (Echinochloa crus-galli)", "test": "Test G Pre-Emergence Protocol", "conditions": "Echinochloa crus-galli, pre-emergence, 312 h, evaluated after 13 days", "outline": "(§1)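 One day after sowing, pots are treated with a spray of test compound formulated in acetone/water 50:50 plus 0.5% Tween 20, giving 15.625, 62.5 or 250 g/ha. Evaluation on a 0–100 damage scale follows 13 days of glasshouse growth.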"}, "[2]": {"test_system": "corn (Zea mays)", "test": "Test G Pre-Emergence Protocol", "conditions": "Zea mays, pre-emergence, 312 h, evaluated after 13 days", "outline": "as §1"}, "[3]": {"test_system": "ivy-leaved morning glory (Ipomoea hederacea)", "test": "Test G Pre-Emergence Protocol", "conditions": "Ipomoea, pre-emergence, 312 h, evaluated after 13 days", "outline": "as §1"}, "[4]": {"test_system": "redroot pigweed (Amaranthus retroflexus)", "test": "Test G Pre-Emergence Protocol", "conditions": "Amaranthus retroflexus, pre-emergence, 312 h, evaluated after 13 days", "outline": "as §1"}, "[5]": {"test_system": "giant foxtail (Setaria faberi)", "test": "Test G Pre-Emergence Protocol", "conditions": "Setaria faberi, pre-emergence, 312 h, evaluated after 13 days", "outline": "as §1"}, "[6]": {"test_system": "velvetleaf (Abutilon theophrasti)", "test": "Test G Pre-Emergence Protocol", "conditions": "Abutilon theophrasti, pre-emergence, 312 h, evaluated after 13 days", "outline": "as §1"}, "[7]": {"test_system": "barnyardgrass (Echinochloa crus-galli)", "test": "Test G Post-Emergence Protocol", "conditions": "Echinochloa crus-galli, post-emergence, 312 h", "outline": "(§2)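 Sow in soil; grow 8 d (24/16 °C, 14 h light, 65% humidity); spray 15.625/62.5/250 g/ha in acetone:water 50:50 + 0.5% Tween 20; grow on, water twice daily; score damage 0–100 at 13 d.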"}, "[8]": {"test_system": "corn (Zea mays)", "test": "Test G Post-Emergence Protocol", "conditions": "Zea mays, post-emergence, 312 h", "outline": "as §2"}, "[9]": {"test_system": "ivy-leaved morning glory (Ipomoea hederacea)", "test": "Test G Post-Emergence Protocol", "conditions": "Ipomoea, post-emergence, 312 h", "outline": "as §2"}, "[10]": {"test_system": "redroot pigweed (Amaranthus retroflexus)", "test": "Test G Post-Emergence Protocol", "conditions": "Amaranthus retroflexus, post-emergence, 312 h", "outline": "as §2"}, "[11]": {"test_system": "giant foxtail (Setaria faberi)", "test": "Test G Post-Emergence Protocol", "conditions": "Setaria faberi, post-emergence, 312 h", "outline": "as §2"}, "[12]": {"test_system": "velvetleaf (Abutilon theophrasti)", "test": "Test G Post-Emergence Protocol", "conditions": "Abutilon theophrasti, post-emergence, 312 h", "outline": "as §2"}}, "data": [{"smiles": "CN1C[C@H](c2ccc(C(F)(F)F)cc2)[C@@H](C(=O)Nc2ncc(Cl)cc2Cl)C1=O", "note": "(racemic) [Compound 1435]", "values": [{"measurement": "pest or weed control at 15.625 g/ha", "setting": "[1]; 15.625 g ai/ha, read-out: Barnyard grass damage rating (100=total damage to plant; 0=no damage to plant)", "value": 0, "unit": "%"}, {"measurement": "pest or weed control at 62.5 g/ha", "setting": "[1]; 62.5 g ai/ha, 100=total damage to plant, 0=no damage to plant, read-out: plant damage rating, Barnyardgrass", "value": 0, "unit": "%"}, {"measurement": "pest or weed control at 250 g/ha", "setting": "[1]; 250 g ai/ha, read-out: Barnyardgrass damage rating (100=total damage to plant; 0=no damage to plant)", "value": 0, "unit": "%"}, {"measurement": "plant injury at 15.625 g/ha", "setting": "[2]; 15.625 g ai/ha, read-out: Corn damage rating (100=total damage to plant; 0=no damage to plant)", "value": 0, "unit": "%"}, {"measurement": "plant injury at 62.5 g/ha", "setting": "[2]; 62.5 g ai/ha, 100=total damage to plant, 0=no damage to plant, read-out: plant damage rating, Corn", "value": 0, "unit": "%"}, {"measurement": "plant injury at 250 g/ha", "setting": "[2]; 250 g ai/ha, read-out: Corn damage rating (100=total damage to plant; 0=no damage to plant)", "value": 0, "unit": "%"}, {"measurement": "pest or weed control at 15.625 g/ha", "setting": "[3]; 15.625 g ai/ha, read-out: Morning-glory, Ivy-leaved damage rating (100=total damage to plant; 0=no damage to plant)", "value": 0, "unit": "%"}, {"measurement": "pest or weed control at 62.5 g/ha", "setting": "[3]; 62.5 g ai/ha, 100=total damage to plant, 0=no damage to plant, read-out: plant damage rating, Morningglory, Ivy-leaved", "value": 0, "unit": "%"}, {"measurement": "pest or weed control at 250 g/ha", "setting": "[3]; 250 g ai/ha, read-out: Morningglory, Ivy-leaved damage rating (100=total damage to plant; 0=no damage to plant)", "value": 0, "unit": "%"}, {"measurement": "pest or weed control at 15.625 g/ha", "setting": "[4]; 15.625 g ai/ha, read-out: Pigweed, Redroot damage rating (100=total damage to plant; 0=no damage to plant)", "value": 0, "unit": "%"}, {"measurement": "pest or weed control at 62.5 g/ha", "setting": "[4]; 62.5 g ai/ha, 100=total damage to plant, 0=no damage to plant, read-out: plant damage rating, Pigweed, Redroot", "value": 0, "unit": "%"}, {"measurement": "pest or weed control at 250 g/ha", "setting": "[4]; 250 g ai/ha, read-out: Pigweed, Redroot damage rating (100=total damage to plant; 0=no damage to plant)", "value": 0, "unit": "%"}, {"measurement": "pest or weed control at 15.625 g/ha", "setting": "[5]; 15.625 g ai/ha, read-out: Foxtail, Giant damage rating (100=total damage to plant; 0=no damage to plant)", "value": 0, "unit": "%"}, {"measurement": "pest or weed control at 62.5 g/ha", "setting": "[5]; 62.5 g ai/ha, 100=total damage to plant, 0=no damage to plant, read-out: plant damage rating, Foxtail, Giant", "value": 0, "unit": "%"}, {"measurement": "pest or weed control at 250 g/ha", "setting": "[5]; 250 g ai/ha, read-out: Foxtail, Giant damage rating (100=total damage to plant; 0=no damage to plant)", "value": 0, "unit": "%"}, {"measurement": "pest or weed control at 15.625 g/ha", "setting": "[6]; 15.625 g ai/ha, read-out: Velvetleaf damage rating (100=total damage to plant; 0=no damage to plant)", "value": 0, "unit": "%"}, {"measurement": "pest or weed control at 62.5 g/ha", "setting": "[6]; 62.5 g ai/ha, 100=total damage to plant, 0=no damage to plant, read-out: plant damage rating, Velvetleaf", "value": 0, "unit": "%"}, {"measurement": "pest or weed control at 250 g/ha", "setting": "[6]; 250 g ai/ha, read-out: Velvetleaf damage rating (100=total damage to plant; 0=no damage to plant)", "value": 0, "unit": "%"}, {"measurement": "pest or weed control at 15.625 g/ha", "setting": "[7]; 15.625 g ai/ha, evaluated after 13 days (100=total damage to plant; 0=no damage to plant), read-out: Barnyardgrass damage rating", "value": 0, "unit": "%"}, {"measurement": "pest or weed control at 62.5 g/ha", "setting": "[7]; 62.5 g ai/ha, evaluated after 13 days, read-out: Barnyardgrass damage rating (100=total damage to plant; 0=no damage to plant)", "value": 0, "unit": "%"}, {"measurement": "pest or weed control at 250 g/ha", "setting": "[7]; 250 g ai/ha, evaluated after 13 days, read-out: damage to plant, Barnyardgrass (100=total damage to plant; 0=no damage to plant)", "value": 0, "unit": "%"}, {"measurement": "plant injury at 15.625 g/ha", "setting": "[8]; 15.625 g ai/ha, evaluated after 13 days (100=total damage to plant; 0=no damage to plant), read-out: Corn damage rating", "value": 0, "unit": "%"}, {"measurement": "plant injury at 62.5 g/ha", "setting": "[8]; 62.5 g ai/ha, evaluated after 13 days, read-out: Corn damage rating (100=total damage to plant; 0=no damage to plant)", "value": 0, "unit": "%"}, {"measurement": "plant injury at 250 g/ha", "setting": "[8]; 250 g ai/ha, evaluated after 13 days, read-out: damage to plant, Corn (100=total damage to plant; 0=no damage to plant)", "value": 10, "unit": "%"}, {"measurement": "pest or weed control at 15.625 g/ha", "setting": "[9]; 15.625 g ai/ha, evaluated after 13 days (100=total damage to plant; 0=no damage to plant), read-out: Morningglory, Ivy-leaved damage rating", "value": 0, "unit": "%"}, {"measurement": "pest or weed control at 62.5 g/ha", "setting": "[9]; 62.5 g ai/ha, evaluated after 13 days, read-out: Morningglory, Ivy-leaved damage rating (100=total damage to plant; 0=no damage to plant)", "value": 0, "unit": "%"}, {"measurement": "pest or weed control at 250 g/ha", "setting": "[9]; 250 g ai/ha, evaluated after 13 days, read-out: damage to plant, Morningglory, Ivy-leaved (100=total damage to plant; 0=no damage to plant)", "value": 0, "unit": "%"}, {"measurement": "pest or weed control at 15.625 g/ha", "setting": "[10]; 15.625 g ai/ha, evaluated after 13 days (100=total damage to plant; 0=no damage to plant), read-out: Pigweed, Redroot damage rating", "value": 0, "unit": "%"}, {"measurement": "pest or weed control at 62.5 g/ha", "setting": "[10]; 62.5 g ai/ha, evaluated after 13 days, read-out: Pigweed, Redroot damage rating (100=total damage to plant; 0=no damage to plant)", "value": 30, "unit": "%"}, {"measurement": "pest or weed control at 250 g/ha", "setting": "[10]; 250 g ai/ha, evaluated after 13 days, read-out: damage to plant, Pigweed, Redroot (100=total damage to plant; 0=no damage to plant)", "value": 30, "unit": "%"}, {"measurement": "pest or weed control at 15.625 g/ha", "setting": "[11]; 15.625 g ai/ha, evaluated after 13 days (100=total damage to plant; 0=no damage to plant), read-out: Foxtail, Giant damage rating", "value": 0, "unit": "%"}, {"measurement": "pest or weed control at 62.5 g/ha", "setting": "[11]; 62.5 g ai/ha, evaluated after 13 days, read-out: Foxtail, Giant damage rating (100=total damage to plant; 0=no damage to plant)", "value": 0, "unit": "%"}, {"measurement": "pest or weed control at 250 g/ha", "setting": "[11]; 250 g ai/ha, evaluated after 13 days, read-out: damage to plant, Foxtail, Giant (100=total damage to plant; 0=no damage to plant)", "value": 0, "unit": "%"}, {"measurement": "pest or weed control at 15.625 g/ha", "setting": "[12]; 15.625 g ai/ha, evaluated after 13 days (100=total damage to plant; 0=no damage to plant), read-out: Velvetleaf damage rating", "value": 0, "unit": "%"}, {"measurement": "pest or weed control at 62.5 g/ha", "setting": "[12]; 62.5 g ai/ha, evaluated after 13 days, read-out: Velvetleaf damage rating (100=total damage to plant; 0=no damage to plant)", "value": 0, "unit": "%"}, {"measurement": "pest or weed control at 250 g/ha", "setting": "[12]; 250 g ai/ha, evaluated after 13 days, read-out: damage to plant, Velvetleaf (100=total damage to plant; 0=no damage to plant)", "value": 0, "unit": "%"}]}]}
